Laboratory results as given in patent publication US4038222A, “Untriakontapeptide with opiate activity” (Hoffman-La Roche Inc., priority 1976, dated 1977).
“Also recorded” adds a separate entry of the source. No end group written: not given here.

Experiments:
[1] = pentapeptide isolated from pig brains; cited from earlier work
[2] = system: opiate receptor, guinea pig brain membranes; assay: Opiate agonist activity by receptor binding assay (method of Simon et al.), inhibition of stereospecific binding; details: for Response: percentage of inhibition of stereospecific binding: mean ± standard error from 4 determinations
Experimental: The opiate agonist activity of natural beta-endophine was determined by the method of Simon et al., Proc. Nat. Acad. Sci. 70, 1947 (1973) using guinea pig brain membranes. The results obtained are summarized below in Table 4:
^a Percentage of inhibition of stereospecific binding.
Mean ± standard error from 4 determinations.

rabbit fat cells = assay: Lipolytic activity in rabbit fat cells (procedure of Li et al.), glycerol production; format: cell-based; details: for Response: glycerol production: triplicate, mean ± standard error
Text: The lypolytic activity of natural beta-endorphin was compared to the activity of ovine beta-lipotropin hormone in rabbit fat cells using the procedure of Li et al., Arch. Biochem. Biophys. 169, 669 (1975).
^a Micromole of glycerol production per gram of cells per hour.
Determinations in triplicate. Values in mean ± standard error.

## H-Tyr-Gly-Gly-Phe-Met-OH- (H-YGGFM-OH) [pentapeptide isolated from pig brains by Hughes et al]
[1]
  Opiate agonist activity (in words): exhibits opiate agonist activity

## YGGFMTSEKSQTPLVTLFKNAIIKNAHKKGQ [beta-endorphin]
[2]
  Opiate agonist activity (in words): potent opiate agonist activity; also recorded: significant opiate agonist activity
[2]; 95% confidence limit of 300-392, λ = 0.044
  Relative potency to normorphine: 342%
[2]; dose 1.0 x 10^-7 M
  Response: percentage of inhibition of stereospecific binding: 60 ± 0.7%
[2]; dose 10.0 x 10^-7 M
  Response: percentage of inhibition of stereospecific binding: 83 ± 0.2%
[2]; molar basis
  Potency relative to normorphine on a molar basis: 3.42 times
Rabbit fat cells; compared with beta-lipotropin hormone
  Lipolytic activity in comparison to the complete hormone (in words): very low
Rabbit fat cells; dose 1.1 (unit not given)
  Response: glycerol production: 0.66 ± 0.28 Micromole of glycerol producti
Rabbit fat cells; dose 10.0 (unit not given)
  Response: glycerol production: 1.42 ± 0.37 Micromole of glycerol producti

## Oc1ccc2c3c1O[C@H]1[C@@H](O)C=C[C@H]4[C@@H](C2)NCC[C@@]341 [Normorphine, reference compound]
[2]; dose 0.7 x 10^-7 M
  Response: percentage of inhibition of stereospecific binding: 28 ± 0.8%
[2]; dose 7.0 x 10^-7 M
  Response: percentage of inhibition of stereospecific binding: 70 ± 0.9%
